In ChEMBL document CHEMBL5604061, “ASAP - WNV NS2B-NS3 protease fluorescence dose response” (2024):
“And” between values parts separate entries of the source, which are not always exact repeats. Equal values may be shown once.

Molecular target: T1, NS3 (West Nile virus, UniProt K4FQI5)
T1 sequence (K4FQI5 whole entry): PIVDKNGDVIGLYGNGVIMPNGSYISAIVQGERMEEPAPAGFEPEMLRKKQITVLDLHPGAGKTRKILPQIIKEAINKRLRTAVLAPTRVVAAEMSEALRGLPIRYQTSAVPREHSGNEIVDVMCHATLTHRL
Assay: Functional biochemical assay to identify treatments for viral infectious disease that targets West Nile NS2B-NS3 protease. Utilizing a direct enzyme activity measurement method, reading the fluorescence intensity is used to characterize the relative potency of inhibitors as IC50.
Parameters: species or system NY-99

Structure (SMILES)	IC50
CO[C@H]1C[C@H](n2cc3c(C(=O)Nc4ccc5c(c4)CNC5)cc(Cl)cc3n2)C1	13.9 µM
O=C1Cc2c(cccc2C(=O)Nc2ccc3c(c2)CNCCC3)N1	2.15 µM
COCn1ncc2c(C(=O)Nc3ccc4c(c3)CNC4)cc(Cl)cc21	3.73 µM
O=C(Nc1cc2c(cc1C1CC1)CNC2)c1cc(F)cc2[nH]ncc12	0.832 µM
Cc1cc(CN)cc(NC(=O)c2cc(Cl)cc3[nH]ncc23)c1	22.6 µM
COc1cc(Br)cc(C(=O)Nc2ccc3c(c2)CNC3)c1	92.7 µM
O=C(Nc1ccc2c(c1)CNC2)c1cc(Cl)cc2[nH]c(-c3cc(C4CC4)[nH]n3)nc12	10.1 µM
O=C(Nc1ccc2c(c1)CNC2)c1cc(F)cc(C=C2CCS(=O)(=O)CC2)c1	14.5 µM
Nc1nc2c(Br)cc(C(=O)Nc3ccc4c(c3)CNC4)cc2s1	> 99.5 µM
O=C(Nc1cc(Cl)cc(C(=O)Nc2cccc([C@H]3C[C@H]3C(=O)O)c2)c1)OCc1ccccc1	81.5 µM
CNC(=O)[C@H](Nc1cc(CN)cc(C(=O)O)c1)c1cc(Cl)cc(C2CC2)c1	1.46 µM
O=C1Cc2c(cc(Br)cc2C(=O)Nc2ccc3c(c2)CNC3)N1	3.18 µM
O=C(NS(=O)(=O)C1CC1)c1cc(Cl)ccc1NS(=O)(=O)c1ccc(Oc2ccccc2Cl)cc1	75.6 µM
O=C(Nc1ccc2c(c1)CNC2)c1cc(Cl)cc2[nH]c(C3(n4ccnn4)CC3)nc12	> 99.5 µM
COc1ccc(-c2nc3c(C(=O)Nc4ccc5c(c4)CNC5)cc(F)cc3[nH]2)nn1	3.68 µM
N=C(N)Nc1ccc(OC(=O)Nc2ccccc2)cc1	> 100 µM
c1cc(C2CCN(Cc3c[nH]c4ccccc34)CC2)c2ccncc2c1	> 99.5 µM
O=C(NC[C@H]1CCCO1)[C@H](Nc1ccc2c(c1)CNC2)c1cc(Cl)cc2[nH]ncc12	1.16 µM
O=C(Nc1ccc2c(c1)CNC2)c1cc(Br)cc2c1OCO2	> 99.5 µM
c1ccc2c(CN3CCC(c4c[nH]c5cccnc45)CC3)c[nH]c2c1	> 99.5 µM
NCCc1cc(Cl)cc(C(=O)Nc2cccc(CN)c2)c1	5.52 µM
c1ccc2c(CN3CCC(c4cscn4)CC3)c[nH]c2c1	> 99.5 µM
O=C(Nc1ccc2c(c1)CNC2)c1cc(Br)cc2[nH]c([C@H]3CCCO3)nc12	> 99.5 µM
O=C(Nc1ccc2c(c1)CNC2)c1cccc2nc(O)ccc12	6.71 µM
C=C[C@H]1NCc2cc(NC(=O)c3cc(F)cc4[nH]ncc34)ccc21	3.07 µM
CN(C)c1nc(-c2cc(F)cc(C(=O)Nc3ccc4c(c3)CNC4)c2)cs1	12.6 µM

Structure (SMILES)	IC50
O=C(O)c1cc(Cl)ccc1S(=O)(=O)NC1CCN(c2nc(C3CC3)cc(C(F)(F)F)n2)CC1	48.5 µM
O=C(Nc1ccc2c(c1)CNC2)c1cccc2[nH]c(=O)[nH]c12	1.47 µM
CCc1nc2c(C(=O)Nc3ccc4c(c3)CNC4)cc(Br)cc2[nH]1	55.9 µM
CC(C)(c1nc2c(C(=O)Nc3ccc4c(c3)CNC4)cc(F)cc2[nH]1)S(C)(=O)=O	9.71 µM
COc1cc(C(=O)Nc2ccc3c(c2)CNC3)cc2ccoc12	48.9 µM
O=C(Nc1ccc2c(c1)CN[C@H]2C[C@H](O)CO)c1cc(Cl)cc2[nH]ncc12	5.56 µM
CC(C)CNC(=O)c1cc(Cl)ccc1NS(=O)(=O)c1ccc(Oc2ccccc2Cl)cc1	> 99.5 µM
Cc1cc(C(=O)Nc2ccc3c(c2)CNC3)c2cn[nH]c2c1	9.64 µM
CCCC[C@H](NC(C)=O)C(=O)N[C@H](C(=O)NCc1ccc(C(N)=O)cc1)c1ccc(OCc2ccccc2)cc1	> 99.5 µM
O=C(O)c1cc2c(cc1NS(=O)(=O)c1ccc(Oc3ccccc3Cl)cc1)CCC2	16.4 µM
NCCc1cccc(NC(=O)c2cc(Cl)cc3[nH]ncc23)c1	94.5 µM
O=C(NCC(F)(F)F)c1cc(Cl)c(F)cc1NS(=O)(=O)c1ccc(Oc2ccccc2Cl)cc1	9.32 µM
O=C(Nc1ccc2c(c1)CCNCC2)c1cc(Cl)cc2[nH]ncc12	48.5 µM
O=C(Nc1ccc2c(c1)CNC2)c1cc(F)cc2[nH]c(-c3ccccc3)nc12	16 µM
CNC(=O)[C@H](Nc1cc(Cl)cc2[nH]ncc12)c1ccc2c(c1)CNC2	88.4 µM
N=C(N)NCCC[C@H](NC(=O)[C@H](Cc1ccc(CN)cc1)NC(=O)c1ccccc1)B(O)O	0.065 µM and 0.217 µM
O=C(Nc1ccc2c(c1)CNC2)c1cc(Br)cc2[nH]ncc12	12.9 µM
O=C(NCC(F)F)[C@H](Nc1ccc2c(c1)CNC2)c1cc(Cl)ccc1Cl	3.01 µM
O=C(Nc1ccc2c(c1)CNC2)c1cc(F)cc2[nH]c(CCc3cccnc3)nc12	3.31 µM
N[C@H]1CCc2cc(NC(=O)c3cc(Cl)cc(NC(=O)OCc4ccccc4)c3)ccc21	45.1 µM
NCc1cccc(NC(=O)c2cc(Cl)cc3c2cnn3CC2CC2)c1	68.2 µM
CC(C)c1nnc(-c2nc3c(C(=O)Nc4ccc5c(c4)CNC5)cc(F)cc3[nH]2)s1	11.8 µM
CCSc1ccc(Cl)cc1C(=O)Nc1ccc2c(c1)CNC2	81.6 µM
O=C(NCC(F)F)[C@H](Nc1ccc2c(c1)CNC2)c1cc(F)cc2[nH]ccc12	0.768 µM
Cc1[nH]c2ccccc2c1CN1CCC(c2nc3ccccc3s2)CC1	> 99.5 µM
Cn1c(=O)[nH]c2c(C(=O)Nc3ccc4c(c3)CNC4)cc(Br)cc21	14.4 µM

Structure (SMILES)	IC50
CNC(=O)c1cc(Cl)c(F)cc1NS(=O)(=O)c1ccc(Oc2ccccc2Cl)cc1	30.6 µM
NS(=O)(=O)c1ccc(C2CCN(Cc3c[nH]c4ccccc34)CC2)cc1	> 99.5 µM
Cc1ncc(-c2cc(F)cc(C(=O)Nc3ccc4c(c3)CNC4)c2)o1	6.67 µM
O=C1Cc2cc(C(=O)Nc3ccc4c(c3)CNC4)ccc2N1	16.7 µM
Cn1nccc1-c1cc(NC(=O)c2cc(F)cc3[nH]ncc23)cc2c1CNC2	1.43 µM
O=C(Nc1ccc2c(c1)CNC2)c1cc(F)cc(-c2c[nH]c(=O)c(F)c2)c1	0.665 µM
CCn1c(=O)c(N2C[C@H]3CCS(=O)(=O)[C@H]3C2)nc2ccccc21	> 99.5 µM
N[C@H]1Cc2ccc(NC(=O)c3cc(Cl)cc4[nH]ncc34)cc2C1	51.6 µM
Cc1cc(-c2cc(F)cc(C(=O)Nc3ccc4c(c3)CNC4)c2)[nH]n1	3.74 µM
NCc1ccc(-c2ncc(OCC3CCNCC3)nc2-c2ccc(C3CCOCC3)cc2)cc1	> 99.5 µM
N#C[C@H](Nc1ccc2c(c1)CNC2)c1cc(Cl)cc(C2CC2)c1	59 µM
O=C(Nc1cc2c(cc1Br)CNC2)c1cc(F)cc2[nH]ncc12	1.25 µM
O=C(Nc1ccc2c(c1)CNC2)c1cc(Cl)cc2[nH]c(COc3ccccn3)nc12	> 99.5 µM
O=C(Nc1ccc2c(c1)CNC2)c1cc(Br)cc2c1nc1n2CCCC1	31.4 µM
CCCn1cc2c(C(=O)Nc3ccc4c(c3)CNC4)cc(Cl)cc2n1	1.97 µM
NCc1cccc(NC(=O)c2cc(Cl)cc(CN)c2)c1	9.79 µM
O=C(Nc1cc(Cl)cc(C(=O)Nc2cccc(-n3nn[nH]c3=O)c2)c1)OCc1ccccc1	32.9 µM
CCc1cc(Cl)cc(C(=O)Nc2ccc3c(c2)CNC3)c1	> 99.5 µM
O=C(Nc1ccc2c(c1)CNC2)c1cc(F)cc2[nH]c(-c3ccc(F)cc3O)nc12	24.1 µM
COc1ccc(Cl)cc1[C@H](Nc1ccc2c(c1)CNC2)C(=O)NCC(F)F	0.531 µM
Cc1ccc(NC(=O)c2cc(Cl)cc(NC(=O)OCc3ccccc3)c2)cc1CN	60.7 µM
C[C@@H](Oc1ccc(S(=O)(=O)Nc2ccc(Cl)cc2C(=O)O)cc1)c1ccccc1F	20.1 µM
O=C(Nc1ccc2c(c1)CNC2)c1cc(Br)cc2[nH]c(=O)[nH]c12	4.67 µM
O=C(Nc1ccc2c(c1)CNC2)c1cc(Cl)cc(C(F)(F)F)n1	40.1 µM
N#Cc1cccc(-c2nc3c(C(=O)Nc4ccc5c(c4)CNC5)cc(F)cc3[nH]2)c1	3.76 µM
O=C(Nc1ccc2c(c1)CNC2)c1cc(Cl)cc2nn(C3CCC3)cc12	14.7 µM

Structure (SMILES)	IC50
CC(=O)Nc1cc(Br)cc(C(=O)Nc2ccc3c(c2)CNC3)c1	31.5 µM
Cn1cc2cc(Cl)cc(C(=O)Nc3ccc4c(c3)CNC4)c2n1	> 24.9 µM
N#Cc1c[nH]c2ccc(C(=O)Nc3ccc4c(c3)CNC4)cc12	9.06 µM
N#Cc1csc2cc(C(=O)Nc3ccc4c(c3)CNC4)ccc12	25.2 µM
N=C(N)NCc1ccc(NC(=O)Oc2ccccc2)cc1	> 100 µM
O=C(NC[C@H]1CCCO1)[C@H](Nc1ccc2c(c1)CNC2)c1cc(Cl)cc(C2CC2)c1	0.498 µM
O=C(Nc1ccc2c(c1)CNCC2)c1cc(Cl)cc2[nH]ncc12	26.3 µM
C=CC[C@H]1NCc2cc(N[C@H](C(=O)NC(C)C)c3cc(Cl)cc4[nH]ncc34)ccc21	0.886 µM
O=C(Nc1ccc2c(c1)CNC2)c1cc(F)cc2[nH]c(-c3ccc(F)cc3)nc12	5.37 µM
NCc1cccc(NC(=O)[C@H](NC(=O)OCc2ccccc2)C2CCC(c3ccccc3)CC2)c1 (some centres not stated)	8.31 µM
C=CC[C@H]1NCc2cc(NC(=O)c3cccc4c3CC(=O)N4)ccc21	8.03 µM
O=C(Nc1ccc2c(c1)CNC2)c1cc(Br)cc2ccccc12	57.6 µM
O=C(Nc1ccc2c(c1)CNC2)c1cc(Cl)cc2[nH]c(-c3nc4c(s3)CCC4)nc12	40.3 µM
O=C(Nc1ccc2c(c1)CNC2)c1cc(Cl)cc2nn(-c3ccccc3)nc12	21.5 µM
O=C(Nc1cc2c(c(C3=CCOCC3)c1)CNC2)c1cc(F)cc2[nH]ncc12	0.627 µM
CN(c1ccc2c(c1)CNC2)[C@H](C(=O)NCC(F)F)c1cc(Cl)cc(C2CC2)c1	0.131 µM
Cc1c(C(=O)Nc2cc(CCCN)ccn2)cc(C2CC2)n1C	58.6 µM
C=CC[C@H](Nc1cc(Cl)cc(NC(=O)OCc2ccccc2)c1)c1cccc(-c2nn[nH]n2)c1	14.4 µM
Cc1nc2c(C(=O)Nc3ccc4c(c3)CNC4)cc(Cl)cc2[nH]1	> 12.4 µM
O=C1c2c(O)ccc([N+](=O)[O-])c2C(=O)c2c([N+](=O)[O-])ccc(O)c21	> 100 µM
CS(=O)(=O)N1CC[C@]2(C1)C(=O)Nc1cccc(C(=O)Nc3ccc4c(c3)CNC4)c12	6.28 µM
CCCCCC(=O)N[C@H](C(=O)NCc1cccc(CN)c1)c1ccc(OCc2ccccc2)cc1	72.3 µM
CNC(=O)[C@H](Nc1ccc2c(c1)CNC2)c1cc(Cl)cc(C2CC2)c1	0.447 µM
O=C(Nc1ccc2c(c1)CNC2)c1cc(Cl)cc2[nH]c(-c3cnc(C4CC4)o3)nc12	22.9 µM
